Source: patent US6825354B2 (Wyeth Holdings Corporation, priority 1999, dated 2004)
Structures can show the parent of a compound that is named as a salt. Where two headings read alike, the source gives them in different places.

Key:
MMP-1 = target: T1, MMP-1 (Homo sapiens, UniProt P03956); experiment: MMP-1 inhibition, thiopeptide or fluorescent peptide substrate; format: biochemical; conditions: Table 1, first part; read-out: MMP1 IC50
T1 sequence (P03956 100-469): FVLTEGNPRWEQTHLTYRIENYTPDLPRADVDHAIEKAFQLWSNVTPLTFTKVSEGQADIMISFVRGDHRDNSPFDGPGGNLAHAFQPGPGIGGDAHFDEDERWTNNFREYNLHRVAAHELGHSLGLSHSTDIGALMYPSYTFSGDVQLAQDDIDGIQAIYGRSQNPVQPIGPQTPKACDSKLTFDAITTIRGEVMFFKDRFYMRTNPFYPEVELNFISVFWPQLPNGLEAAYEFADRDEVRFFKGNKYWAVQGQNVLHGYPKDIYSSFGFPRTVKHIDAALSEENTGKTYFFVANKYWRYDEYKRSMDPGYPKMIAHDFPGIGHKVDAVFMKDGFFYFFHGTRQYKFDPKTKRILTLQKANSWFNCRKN
Method: The enzyme activity is measured by the rate of the color increase. The thiopeptide substrate is made up fresh as a 20 mM stock in 100% DMSO and the DTNB is dissolved in 100% DMSO as a 100 mM stock and stored in the dark at room temperature. Both the substrate and DTNB are diluted together to 1 mM with substrate buffer (50 mM HEPES pH 7.5, 5 mM CaCl2) before use. The stock of enzyme is diluted with buffer (50 mM HEPES, pH 7.5, 5 mM CaC12, 0.02% Brij) to the desired final concentration.
Alternatively, a fluorescent peptide substrate is used. In this test procedure, the peptide substrate contains a fluorescent group and a quenching group. Upon cleavage of the substrate by an MMP, the fluorescence that is generated is quantitated on the fluorescence plate reader. The assay is run in HCBC assay buffer (50 mM HEPES, pH 7.0, 5 mM Ca^+2, 0.02% Brij, 0.5% Cysteine), with human recombinant MMP-1, MMP-9, or MMP-13. The substrate is dissolved in methanol and stored frozen in 1 mM aliquots. For the assay, substrate and enzymes are diluted in HCBC buffer to the desired concentrations. Compounds are added to the 96 well plate containing enzyme and the reaction is started by the addition of substrate.
For either the thiopeptide or fluorescent peptide test procedures, the slope of the line is calculated and represents the reaction rate. […] The mean (x±sem) of the control rate is calculated and compared for statistical significance (p<0.05) with drug-treated rates using Dunnett's multiple comparison test.

[1] = target: TNF-α converting enzyme (TACE) (Homo sapiens, UniProt P78536); experiment: TACE inhibition, fluorescent peptidyl substrate; format: biochemical; conditions: for TACE % @ 10 μM: footnote a: % @ 10 μM
Method: […] The reaction is initiated by addition of a fluorescent peptidyl substrate (final concentration 100 μM) to each well and then shaking on a shaker for 5 sec.
The reaction is read (excitation 340 nm, emission 420 nm) for 10 min. and the increase in fluorescence over time is plotted as a linear line. The slope of the line is calculated and represents the reaction rate.
The mean (x±sem) of the control rate is calculated and compared for statistical significance (p<0.05) with drug-treated rates using Dunnett's multiple comparison test.

[2] = Table 1, first part, read-out: TACE IC50
[3] = Table 1, second part, footnote a: IC50 (nM), read-out: TACE IC50

Sequence of TNF-α converting enzyme (TACE) (P78536 215-824): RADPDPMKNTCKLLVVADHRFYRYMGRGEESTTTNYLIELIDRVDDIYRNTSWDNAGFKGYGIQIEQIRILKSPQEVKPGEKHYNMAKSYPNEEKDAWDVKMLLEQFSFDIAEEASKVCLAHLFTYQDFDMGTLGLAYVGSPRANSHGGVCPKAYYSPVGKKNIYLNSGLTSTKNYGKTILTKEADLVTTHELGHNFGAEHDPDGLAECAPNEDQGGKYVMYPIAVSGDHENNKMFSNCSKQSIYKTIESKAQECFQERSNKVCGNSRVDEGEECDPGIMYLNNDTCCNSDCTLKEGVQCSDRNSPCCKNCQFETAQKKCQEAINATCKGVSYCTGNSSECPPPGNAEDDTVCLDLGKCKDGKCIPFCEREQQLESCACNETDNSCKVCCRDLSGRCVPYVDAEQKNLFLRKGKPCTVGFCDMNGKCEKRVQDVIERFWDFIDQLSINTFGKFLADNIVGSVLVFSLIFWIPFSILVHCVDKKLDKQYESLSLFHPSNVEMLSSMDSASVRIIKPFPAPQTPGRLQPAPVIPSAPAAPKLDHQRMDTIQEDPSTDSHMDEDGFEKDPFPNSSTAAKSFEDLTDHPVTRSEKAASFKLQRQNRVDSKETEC

Row | Compound | melting point [°C] | IC50 [1, 2] [nM] | also measured
1 | 2-(4-But-2-ynyloxy-benzenesulfinyl)-6-[2-(3,4-dichloro-phenyl)-acetylamino]-hexanoic acid hydroxyamide [Example 57] |  | 24.4 | IC50 (MMP-1): 4600 nM
2 | CC#CCOc1ccc(S(=O)(=O)C(C)(Cc2ccc(-c3ccccc3)cc2)C(=O)NO)cc1 (stereo not drawn) [Example 2, 3-Biphenyl-4-yl-2-(4-Buty-2-ynyloxy-phenylsulfonyl)-N-hydroxy-2-methyl-propionamide] | 92 to 94 |  | 
3 | CC#CCOc1ccc(OCCC(=O)NO)cc1 [Example 9, 3-(4-But-2-ynyloxy-phenoxy)-N-hydroxy-propionamide] | 116 to 118 |  | 
4 | Quinoline-3-carboxylic Acid [5-(4-but-2-ynyloxy-benzenesulfinyl)-5-hydroxycarbamoyl-pentyl]-amide [Example 53] |  | 15.2 | IC50 (MMP-1): 4000 nM
5 | N-[5-(4-But-2-ynyloxy-benzenesulfinyl)-5-hydroxycarbamoyl-pentyl]-2-phenethyl-benzamide [Example 56] |  | 21.9 | IC50 (MMP-1): 3900 nM
6 | CC#CCOc1ccc(SC(C)C(=O)NO)cc1 (stereo not drawn) [Example 4, 2-(4-Buty-2-ynyloxy-phenylsulfanyl)-N-hydroxy-propionamide] | 102 to 104 |  | 
7 | CC#CCOc1ccc(OCCCC(=O)NO)cc1 [Example 10, 4-(4-But-2-ynyloxy-phenoxy)-N-hydroxy-butyramide] | 123 to 125 |  | 
8 | 9H-Xanthene-9-carboxylic acid [5-(4-but-2-ynyloxy-benzenesulfinyl)-5-hydroxycarbamoyl-pentyl]-amide [Example 59] |  | 22.6 | IC50 (MMP-1): 3400 nM
9 | CC#CCOc1ccc(S(=O)(=O)C(C(=O)NO)c2ccc(-c3cccs3)cc2)cc1 (stereo not drawn) [Example 91, 2-{[4-(2-butynyloxy)phenyl]sulfonyl}-N-hydroxy-2-[4-(2-thienyl)phenyl]acetamide] |  |  | TACE % @ 10 μM ([1]; Table 1, second part): 48%
10 | 1-Methyl-1H-pyrrole-2-carboxylic acid {[5-(4-but-2-ynyloxy-benzenesulfinyl)-5-hydroxy-carbamoylpentyl-carbamoyl]-methyl}-amide [Example 61] |  | 22.5 | IC50 (MMP-1): 5600 nM
11 | CC#CCOc1ccc([S+]([O-])[C@@H](C(=O)NO)c2ccc(-c3cccs3)cc2)cc1 (stereo partly drawn) [Example 90, (2R)-2-{[4-(2-butynyloxy)phenyl]sulfinyl}-N-hydroxy-2-[4-(2-thienyl)phenyl]ethanamide] |  |  | IC50 [1, 3]: 682 nM
12 | CC#CCOc1ccc(S(=O)(=O)C(C)(Cc2cccnc2)C(=O)NO)cc1 (stereo not drawn) (as salt: hydrochloride) [Example 3, 2-(4Buty-2-ynyloxy-phenylsulfonyl)-N-hydroxy-2-methyl-3-pyridin-3-ylpropionamide] | 154 to 156 |  | 
13 | CC#CCOc1ccc(OCC(=O)NO)cc1 [Example 11, 2-(4-But-2-ynyloxy-phenoxy)-N-hydroxy-acetamide] | 130 to 132 |  | 
14 | CC#CCOc1ccc(SC(CCCCCC)C(=O)NO)cc1 (stereo not drawn) [Example 6, 2-(4-But-2-ynyloxy-phenylsulfanyl)-octanoic Acid Hydroxamide] | 125 |  | 
15 | N-[5-(4-But-2-ynyloxy-phenylsulfanyl)-5-hydroxycarbamoyl-pentyl]-2-phenethyl-benzamide [Example 15] |  | 138 | 
16 | 2-(4-But-2-ynyloxy-benzenesulfinyl)-6-[2-(1,3-dioxo-1,3-dihydro-isoindol-2-yl)-acetylamino]-hexanoic acid hydroxyamide [Example 55] |  | 38.5 | 
17 | CC#CCOc1ccc(SC(C(=O)NO)c2ccc(F)cc2)cc1 (stereo not drawn) [Example 95] |  |  | IC50 [1, 3]: 108 nM
18 | CC#CCOc1ccc(SC(C(=O)NO)c2ccc3ccccc3c2)cc1 (stereo not drawn) [Example 114, 2-{[4-(2-Butynyloxy)phenyl]sulfanyl}-2-(2-naphthyl)-N-hydroxyacetamide] |  |  | TACE % @ 10 μM ([1]; Table 1, second part): 40.90%
19 | N-{[5-(4-But-2-ynyloxy-phenylsulfanyl)-5-hydroxy-carbamoyl-pentylcarbamoyl]-methyl}-2-phenethyl-benzamide [Example 46] |  | 84.2 | 
20 | Quinoline-2-carboxylic acid [5-(4-but-2-ynyloxy-benzenesulfinyl)-5-hydroxycarbamoyl-pentyl]-amide [Example 54] |  | 27.2 | 
21 | CC#CCOc1ccc([S@@+]([O-])[C@@H](CCCCCC)C(=O)NO)cc1 [Example 8, (S)-2-[(S)-[4-(2-Butynyloxy)phenylsulfinyl)]-N-hydroxyoctanamide] | 112.2 |  | 
22 | CC#CCOc1ccc(S(=O)(=O)C(C)(Cc2ccc(OCCN3CCCCC3)cc2)C(=O)NO)cc1 (stereo not drawn) (as salt: hydrochloride) [Example 1, 2-(4-But-2-ynyloxy-benzenesulfonyl)-N-hydroxy-2-methyl-3-[4-(2-piperidin-1-yl-ethoxy)-phenyl]-propionamide] | 114 to 116 |  | 
23 | CC#CCOc1ccc([S+]([O-])[C@H](C(=O)NO)c2ccc(OC)cc2)cc1 (single isomer, unassigned) [Example 78] |  |  | IC50 [1]: 17.6 nM

Further lines, with some results ahead:

Row | melting point [°C] | IC50 [1, 2] [nM] | Compound | also measured
24 | 103 |  | CC#CCOc1ccc(S(=O)(=O)C(C(=O)NO)C2CCN(C(C)=O)CC2)cc1 (stereo not drawn) [Example 121, 2-(1-acetyl-4-piperidinyl)-2-{[4-(2-butynyloxy)phenyl]sulfonyl}-N-hydroxyacetamide] | 
25 |  | 20.1 | 2-(4-But-2-ynyloxy-benzenesulfinyl)-6-(4-thiophen-2-yl-butyrylamino)-hexanoic acid hydroxyamide [Example 58] | IC50 (MMP-1): 4600 nM
26 |  | 43.7 | CC#CCOc1ccc(S(=O)(=O)C(CCCCNC(=O)Cc2ccc(Cl)c(Cl)c2)C(=O)NO)cc1 (stereo not drawn) [Example 37, 2-(4-But-2-ynyloxy-benzenesulfonyl)-6-[2-(3,4-dichloro-phenyl)-acetylamino]-hexanoic acid hydroxyamide] | 
27 |  | 52.1 | CC#CCOc1ccc(S(=O)(=O)C(CCCCNC(=O)CNC(=O)Cc2ccc(Cl)c(Cl)c2)C(=O)NO)cc1 (stereo not drawn) [Example 65, 2-(4-But-2-ynyloxy-benzenesulfonyl)-6-{2-[2-(3,4-dichloro-phenyl)-acetylamino]-acetylamino}-hexanoic acid hydroxyamide] | 
28 | 175 to 177 |  | CC#CCOc1ccc(S(=O)(=O)C(C(=O)NO)C2CCSCC2)cc1 (stereo not drawn) [Example 123, 2-{[4-(2-Butynyloxy)phenyl]sulfonyl}-N-hydroxy-2-tetrahydro-2H-thiopyran-4yl-acetamide] | 
29 |  | 32.5 | CC#CCOc1ccc(SC(CCCCNC(=O)CNC(=O)Cc2ccc(Cl)c(Cl)c2)C(=O)NO)cc1 (stereo not drawn) [Example 43, 2-(4-but-2-ynyloxy-phenylsulfanyl)-6-{2-[2-(3,4-dichloro-phenyl)-acetylamino]-acetylamino}-hexanoic acid hydroxyamide] | 
30 |  | 28.3 | CC#CCOc1ccc([S+]([O-])C(CCCCNC(=O)c2nccc3ccccc23)C(=O)NO)cc1 (stereo not drawn) [Example 31, Isoquinoline-1-carboxylic acid [5-(4-but-2-ynyloxy-benzenesulfinyl)-5-hydroxycarbamoyl-pentyl]-amide] | 
